{"source": "ChEMBL document CHEMBL4765432", "about": "“Design and synthesis of novel Flavone-based histone deacetylase inhibitors antagonizing activation of STAT3 in breast cancer” (Eur J Med Chem, 2020)", "key": {"[1]": {"test_system": "MDA-MB-468", "experiment": "Cytotoxicity against human MDA-MB-468 cells assessed as reduction in cell viability incubated for 48 hrs by MTT assay", "format": "functional, cell-based", "details": "MDA-MB-468, 48 h"}, "[2]": {"molecular_target": "Histone deacetylase 4 (Homo sapiens, UniProt P56524)", "sequence (P56524 whole entry)": "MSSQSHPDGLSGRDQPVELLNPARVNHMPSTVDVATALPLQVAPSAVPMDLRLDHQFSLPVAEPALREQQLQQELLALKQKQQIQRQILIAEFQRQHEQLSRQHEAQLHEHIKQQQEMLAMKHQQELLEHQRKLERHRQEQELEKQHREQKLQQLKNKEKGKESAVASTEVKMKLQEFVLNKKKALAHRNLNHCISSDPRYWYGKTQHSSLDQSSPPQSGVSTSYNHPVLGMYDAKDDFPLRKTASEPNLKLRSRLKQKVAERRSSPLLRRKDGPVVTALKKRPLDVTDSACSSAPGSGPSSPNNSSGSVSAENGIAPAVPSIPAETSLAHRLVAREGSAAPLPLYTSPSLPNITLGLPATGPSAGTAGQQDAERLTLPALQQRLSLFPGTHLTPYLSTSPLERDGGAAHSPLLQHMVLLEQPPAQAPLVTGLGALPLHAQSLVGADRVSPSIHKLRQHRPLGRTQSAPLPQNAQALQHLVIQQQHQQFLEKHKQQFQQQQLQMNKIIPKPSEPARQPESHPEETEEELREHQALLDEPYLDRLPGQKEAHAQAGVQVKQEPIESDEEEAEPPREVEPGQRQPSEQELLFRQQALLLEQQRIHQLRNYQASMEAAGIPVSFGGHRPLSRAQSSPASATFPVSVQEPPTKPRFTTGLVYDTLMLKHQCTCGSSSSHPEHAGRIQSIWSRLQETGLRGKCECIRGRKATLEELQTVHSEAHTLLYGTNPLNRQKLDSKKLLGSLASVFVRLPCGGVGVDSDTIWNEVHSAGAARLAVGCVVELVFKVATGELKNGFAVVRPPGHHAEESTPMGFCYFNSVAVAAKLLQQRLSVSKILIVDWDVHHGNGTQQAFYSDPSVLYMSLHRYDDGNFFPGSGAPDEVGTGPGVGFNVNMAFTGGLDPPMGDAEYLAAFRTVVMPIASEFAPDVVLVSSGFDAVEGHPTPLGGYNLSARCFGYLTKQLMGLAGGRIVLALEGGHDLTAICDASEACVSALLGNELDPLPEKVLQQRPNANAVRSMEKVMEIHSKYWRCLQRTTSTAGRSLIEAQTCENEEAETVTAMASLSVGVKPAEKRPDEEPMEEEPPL", "experiment": "Inhibition of recombinant human N-terminal GST-tagged HDAC-4 (612 to end residues) expressed in baculovirus infected in Sf9 cells using Boc-Lys (q-Ac)-AMC as substrate incubated for 10 mins followed by substrate addition and measured after 30 mins by fluorescence based assay"}, "[3]": {"molecular_target": "Histone deacetylase 3 (Homo sapiens, UniProt O15379)", "sequence (O15379 whole entry)": "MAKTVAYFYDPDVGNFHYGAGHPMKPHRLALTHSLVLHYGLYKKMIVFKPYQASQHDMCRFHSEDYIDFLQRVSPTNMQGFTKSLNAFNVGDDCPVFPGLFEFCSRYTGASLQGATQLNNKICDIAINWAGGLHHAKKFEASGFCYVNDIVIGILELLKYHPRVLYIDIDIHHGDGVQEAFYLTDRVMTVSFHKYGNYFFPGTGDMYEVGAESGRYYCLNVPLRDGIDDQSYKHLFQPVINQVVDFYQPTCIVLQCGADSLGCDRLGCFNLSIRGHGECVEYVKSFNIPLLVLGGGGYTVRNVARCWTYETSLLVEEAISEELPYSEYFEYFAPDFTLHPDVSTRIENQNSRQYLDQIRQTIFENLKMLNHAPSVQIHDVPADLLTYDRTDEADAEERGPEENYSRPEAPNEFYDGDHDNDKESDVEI", "experiment": "Inhibition of recombinant human C-terminal GST-tagged full length HDAC-3 expressed in baculovirus infected in Sf9 cells using Boc-Lys (q-Ac)-AMC as substrate incubated for 10 mins followed by substrate addition and measured after 30 mins by fluorescence based assay"}, "[4]": {"test_system": "NCI-H460", "experiment": "Cytotoxicity against human NCI-H460 cells assessed as reduction in cell viability incubated for 48 hrs by MTT assay", "format": "functional, cell-based", "details": "NCI-H460, 48 h"}, "[5]": {"test_system": "MDA-MB-231", "experiment": "Induction of apoptosis in human MDA-MB-231 cells assessed as viable cells at 2.5 uM incubated for 72 hrs by annexinV-FITC and PI staining based flow cytometry analysis (reference value: 90.3 %)", "format": "functional", "details": "read-out: Activity"}, "[6]": {"test_system": "PLC", "experiment": "Cytotoxicity against human PLC cells assessed as reduction in cell viability incubated for 48 hrs by MTT assay", "format": "functional, cell-based"}, "[7]": {"experiment": "Genotoxicity in Salmonella typhimurium TA1535 by Ames test", "format": "toxicity", "details": "salmonella enterica subsp. enterica serovar typhimurium"}, "[8]": {"molecular_target": "Histone deacetylase 9 (Homo sapiens, UniProt Q9UKV0)", "sequence (Q9UKV0 whole entry)": "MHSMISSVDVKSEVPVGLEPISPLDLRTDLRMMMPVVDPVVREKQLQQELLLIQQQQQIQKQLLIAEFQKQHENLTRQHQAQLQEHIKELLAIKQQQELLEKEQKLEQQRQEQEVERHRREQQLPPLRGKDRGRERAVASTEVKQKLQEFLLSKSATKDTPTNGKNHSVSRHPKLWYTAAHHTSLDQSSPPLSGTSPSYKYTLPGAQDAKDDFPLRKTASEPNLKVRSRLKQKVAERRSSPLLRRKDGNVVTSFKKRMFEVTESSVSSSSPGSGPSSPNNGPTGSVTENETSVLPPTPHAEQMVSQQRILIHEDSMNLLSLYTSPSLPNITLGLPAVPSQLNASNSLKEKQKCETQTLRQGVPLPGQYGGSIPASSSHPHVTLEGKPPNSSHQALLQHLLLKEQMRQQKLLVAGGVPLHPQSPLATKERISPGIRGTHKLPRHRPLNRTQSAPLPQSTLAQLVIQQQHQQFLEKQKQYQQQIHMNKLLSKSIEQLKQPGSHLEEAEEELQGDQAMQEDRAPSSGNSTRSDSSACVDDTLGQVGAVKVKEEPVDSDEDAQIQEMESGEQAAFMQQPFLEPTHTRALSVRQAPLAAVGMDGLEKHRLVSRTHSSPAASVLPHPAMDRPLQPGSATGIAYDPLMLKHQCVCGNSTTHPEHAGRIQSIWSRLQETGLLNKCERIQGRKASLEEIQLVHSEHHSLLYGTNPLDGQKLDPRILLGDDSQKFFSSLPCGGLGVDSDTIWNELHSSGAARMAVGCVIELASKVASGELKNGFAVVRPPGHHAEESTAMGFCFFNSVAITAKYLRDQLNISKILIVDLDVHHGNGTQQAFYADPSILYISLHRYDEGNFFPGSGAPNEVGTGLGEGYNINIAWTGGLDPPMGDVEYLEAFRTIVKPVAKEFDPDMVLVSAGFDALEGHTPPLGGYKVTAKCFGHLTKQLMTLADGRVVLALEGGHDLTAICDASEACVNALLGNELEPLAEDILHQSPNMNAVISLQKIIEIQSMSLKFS", "experiment": "Inhibition of recombinant human N-terminal GST-tagged HDAC-9 (548 to end residues) expressed in baculovirus infected in Sf9 cells using Boc-Lys (q-Ac)-AMC as substrate incubated for 10 mins followed by substrate addition and measured after 30 mins by fluorescence based assay"}, "[9]": {"test_system": "4T1", "experiment": "Induction of apoptosis in mouse 4T1 cells assessed as necrotic cells at 5 uM incubated for 72 hrs by annexinV-FITC and PI staining based flow cytometry analysis (reference value: 5.00 %)", "format": "functional"}, "[10]": {"experiment": "Genotoxicity in Salmonella typhimurium WP2 uvrA (pKM 101) by Ames test", "format": "toxicity", "details": "salmonella enterica subsp. enterica serovar typhimurium"}, "[11]": {"test_system": "Bel-7402", "experiment": "Cytotoxicity against human Bel-7402 cells assessed as reduction in cell viability incubated for 48 hrs by MTT assay", "format": "functional, cell-based", "details": "Bel-7402, 48 h"}, "[12]": {"test_system": "MDA-MB-231", "experiment": "Antitumor activity against human MDA-MB-231 cells xenografted in BALB/c mouse assessed as tumor growth inhibition at 25 mg/kg, ip administered for 34 days and measured on day 34", "format": "functional, organism-based", "details": "time 34.0 day"}, "[13]": {"test_system": "4T1", "experiment": "Induction of apoptosis in mouse 4T1 cells assessed as viable cells at 5 uM incubated for 72 hrs by annexinV-FITC and PI staining based flow cytometry analysis (reference value: 91.1 %)", "format": "functional", "details": "read-out: Activity"}, "[14]": {"experiment": "Tmax in Sprague-Dawley rat at 20 mg/kg, po measured upto 12 hrs by LC-MS/MS analysis", "format": "ADME, organism-based", "details": "in vivo"}, "[15]": {"test_system": "MDA-MB-231", "experiment": "Induction of cell cycle arrest in human MDA-MB-231 cells assessed as increase in G0/G1 phase accumulation incubated for 24 hrs by flow cytometry analysis", "format": "functional, cell-based", "details": "dose 1-2 µM"}, "[16]": {"molecular_target": "Histone deacetylase 2 (Homo sapiens, UniProt Q92769)", "sequence (Q92769 whole entry)": "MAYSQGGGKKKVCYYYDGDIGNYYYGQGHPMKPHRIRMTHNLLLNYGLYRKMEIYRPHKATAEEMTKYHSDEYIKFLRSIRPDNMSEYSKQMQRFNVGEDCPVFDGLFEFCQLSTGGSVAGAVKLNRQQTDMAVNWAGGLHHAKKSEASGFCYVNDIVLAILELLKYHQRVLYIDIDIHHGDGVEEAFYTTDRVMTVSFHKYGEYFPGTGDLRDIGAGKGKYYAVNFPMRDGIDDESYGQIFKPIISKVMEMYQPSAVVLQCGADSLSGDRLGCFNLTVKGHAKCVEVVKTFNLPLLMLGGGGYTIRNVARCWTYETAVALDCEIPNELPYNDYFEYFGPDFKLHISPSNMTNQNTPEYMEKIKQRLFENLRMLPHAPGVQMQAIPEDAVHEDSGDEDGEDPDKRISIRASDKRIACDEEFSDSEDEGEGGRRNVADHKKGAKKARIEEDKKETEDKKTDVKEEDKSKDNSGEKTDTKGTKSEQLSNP", "experiment": "Inhibition of recombinant human C-terminal GST-tagged full length HDAC-2 expressed in baculovirus infected in Sf9 cells using Boc-Lys (q-Ac)-AMC as substrate incubated for 10 mins followed by substrate addition and measured after 30 mins by fluorescence based assay"}, "[17]": {"test_system": "MDA-MB-231", "experiment": "Induction of apoptosis in human MDA-MB-231 cells assessed as increase in PARP cleavage incubated for 48 hrs by Western blot analysis", "format": "functional, cell-based", "details": "dose 0.5-10 µM"}, "[18]": {"test_system": "SMMC-7721", "experiment": "Cytotoxicity against human SMMC-7721 cells assessed as reduction in cell viability incubated for 48 hrs by MTT assay", "format": "functional, cell-based", "details": "SMMC-7721, 48 h"}, "[19]": {"experiment": "Toxicity in C57BL/6 mouse assessed death of organism at 300 mg/kg, ip observed for 24 hrs", "format": "organism-based", "details": "in vivo"}, "[20]": {"test_system": "4T1", "experiment": "Potency index, ratio of IC50 of SAHA to IC50 of compound for cytotoxicity against mouse 4T1 cells assessed as reduction in cell viability incubated for 48 hrs by MTT assay", "format": "functional"}, "[21]": {"test_system": "PANC-1", "experiment": "Cytotoxicity against human PANC-1 cells assessed as reduction in cell viability incubated for 48 hrs by MTT assay", "format": "functional, cell-based", "details": "PANC-1, 48 h"}, "[22]": {"test_system": "MDA-MB-231", "experiment": "Potency index, ratio of IC50 of SAHA to IC50 of compound for cytotoxicity against human MDA-MB-231 cells assessed as reduction in cell viability incubated for 48 hrs by MTT assay", "format": "functional"}, "[23]": {"test_system": "MDA-MB-231", "experiment": "Induction of cell cycle arrest in human MDA-MB-231 cells assessed as G0/G1 phase accumulation at 2 uM incubated for 24 hrs by PI staining based flow cytometry analysis (reference value: 29.10 %)", "format": "functional"}, "[24]": {"experiment": "Genotoxicity in Salmonella typhimurium TA100 by Ames test", "format": "toxicity", "details": "salmonella enterica subsp. enterica serovar typhimurium"}, "[25]": {"experiment": "MRT in Sprague-Dawley rat at 20 mg/kg, iv measured upto 12 hrs by LC-MS/MS analysis", "format": "ADME, organism-based", "details": "in vivo"}, "[26]": {"test_system": "MDA-MB-231", "experiment": "Induction of cell cycle arrest in human MDA-MB-231 cells assessed as G0/G1 phase accumulation at 1 uM incubated for 24 hrs by PI staining based flow cytometry analysis (reference value: 29.10 %)", "format": "functional"}, "[27]": {"test_system": "MDA-MB-468", "experiment": "Potency index, ratio of IC50 of SAHA to IC50 of compound for cytotoxicity against human MDA-MB-468 cells assessed as reduction in cell viability incubated for 48 hrs by MTT assay", "format": "functional"}, "[28]": {"experiment": "Toxicity in C57BL/6 mouse assessed death of organism at 50 mg/kg, po observed for 20 days", "format": "organism-based", "details": "in vivo, 480 h, time 20 day"}, "[29]": {"molecular_target": "Histone deacetylase 7 (Homo sapiens) (UniProt Q8WUI4)", "sequence (Q8WUI4 whole entry)": "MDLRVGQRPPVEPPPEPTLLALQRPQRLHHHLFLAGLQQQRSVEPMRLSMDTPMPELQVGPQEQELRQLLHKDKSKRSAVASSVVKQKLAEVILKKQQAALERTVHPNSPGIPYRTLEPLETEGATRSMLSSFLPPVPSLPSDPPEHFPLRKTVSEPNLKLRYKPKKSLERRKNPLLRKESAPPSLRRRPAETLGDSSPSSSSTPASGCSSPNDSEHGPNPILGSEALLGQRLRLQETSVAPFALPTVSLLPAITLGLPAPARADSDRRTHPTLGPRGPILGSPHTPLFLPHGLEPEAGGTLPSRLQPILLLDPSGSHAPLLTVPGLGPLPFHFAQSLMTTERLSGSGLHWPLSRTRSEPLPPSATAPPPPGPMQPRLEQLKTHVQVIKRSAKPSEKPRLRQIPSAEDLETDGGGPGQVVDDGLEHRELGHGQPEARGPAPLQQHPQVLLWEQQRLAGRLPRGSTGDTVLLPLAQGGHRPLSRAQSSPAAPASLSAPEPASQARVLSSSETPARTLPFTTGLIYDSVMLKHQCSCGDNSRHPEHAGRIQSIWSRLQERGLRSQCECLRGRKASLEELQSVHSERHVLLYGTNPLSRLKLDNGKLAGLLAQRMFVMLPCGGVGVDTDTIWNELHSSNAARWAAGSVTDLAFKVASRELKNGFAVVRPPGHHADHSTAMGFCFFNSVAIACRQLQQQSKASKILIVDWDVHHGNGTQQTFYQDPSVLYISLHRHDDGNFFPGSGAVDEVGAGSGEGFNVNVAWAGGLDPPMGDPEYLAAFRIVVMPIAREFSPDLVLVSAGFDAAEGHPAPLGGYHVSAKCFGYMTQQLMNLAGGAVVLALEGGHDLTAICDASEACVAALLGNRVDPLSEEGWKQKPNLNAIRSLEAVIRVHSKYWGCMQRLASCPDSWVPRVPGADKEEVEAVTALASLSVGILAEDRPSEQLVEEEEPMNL", "experiment": "Inhibition of recombinant human N-terminal GST-tagged HDAC-7 (501 to end residues) expressed in baculovirus infected in Sf9 cells at 10 uM using Boc-Lys (q-Ac)-AMC as substrate incubated for 10 mins followed by substrate addition and measured after 30 mins by fluorescence based assay relative to control", "details": "time 40.0 min"}, "[30]": {"test_system": "MDA-MB-231", "experiment": "Antitumor activity against human MDA-MB-231 cells xenografted in nude mouse assessed as tumor growth inhibition at 25 mg/kg, ip administered for 34 days and measured on day 34", "format": "functional, organism-based", "details": "time 34.0 day"}, "[31]": {"test_system": "4T1", "experiment": "Antitumor activity against mouse 4T1 cells xenografted in BALB/c mouse assessed as tumor growth inhibition at 20 mg/kg, ip administered for 22 days and measured on day 22", "format": "functional, organism-based", "details": "time 22.0 day"}, "[32]": {"test_system": "4T1", "experiment": "Induction of cell cycle arrest in mouse 4T1 cells assessed as S phase accumulation at 2 uM incubated for 24 hrs by PI staining based flow cytometry analysis (reference value: 19.43 %)", "format": "functional"}, "[33]": {"test_system": "4T1", "experiment": "Induction of apoptosis in mouse 4T1 cells assessed as late apoptotic cells at 2.5 uM incubated for 72 hrs by annexinV-FITC and PI staining based flow cytometry analysis (reference value: 2.24 %)", "format": "functional"}, "[34]": {"test_system": "4T1", "experiment": "Induction of cell cycle arrest in mouse 4T1 cells assessed as G2/M phase accumulation at 2 uM incubated for 24 hrs by PI staining based flow cytometry analysis (reference value: 38.51 %)", "format": "functional"}}, "note": "Activity calls are given as the source filed them. No cut-off for these calls is given here."}
{"smiles": "CN(C)CCOc1ccc(-c2cc(=O)c3c(O)cc(OCCCCCC(=O)NO)cc3o2)cc1.Cl", "values": [{"measurement": "IC50", "setting": "[1]", "result": 3400, "unit": "nM"}, {"measurement": "IC50", "setting": "[2]", "result": 307, "unit": "nM"}, {"measurement": "IC50", "setting": "[3]", "result": 79.2, "unit": "nM"}, {"measurement": "IC50", "setting": "[4]", "result": 2720, "unit": "nM"}, {"measurement": "viability at 2.5 µM", "setting": "[5]", "result": 25.5, "unit": "%"}, {"measurement": "IC50", "setting": "[6]", "result": 582, "unit": "nM"}, {"measurement": "Activity", "setting": "[7]", "result": "Non-Toxic"}, {"measurement": "IC50", "setting": "[8]", "result": "> 10000", "unit": "nM"}, {"measurement": "Activity", "setting": "[9]", "result": 0.852, "unit": "%"}, {"measurement": "Activity", "setting": "[10]", "result": "Non-Toxic"}, {"measurement": "IC50", "setting": "[11]", "result": 3310, "unit": "nM"}, {"measurement": "TGI", "setting": "[12]", "result": "Active"}, {"measurement": "viability at 5 µM", "setting": "[13]", "result": 22.5, "unit": "%"}, {"measurement": "Tmax", "setting": "[14]", "result": 20, "unit": "min"}, {"measurement": "Activity", "setting": "[15]", "result": "Dose-dependent effect"}, {"measurement": "IC50", "setting": "[16]", "result": 58.5, "unit": "nM"}, {"measurement": "Activity", "setting": "[17]", "result": "Dose-dependent effect"}, {"measurement": "IC50", "setting": "[18]", "result": 530, "unit": "nM"}, {"measurement": "Activity", "setting": "[19]", "result": "Non-Toxic"}, {"measurement": "Ratio IC50", "setting": "[20]", "result": 2}, {"measurement": "IC50", "setting": "[21]", "result": "> 10000", "unit": "nM"}, {"measurement": "Ratio IC50", "setting": "[22]", "result": 2}, {"measurement": "Activity", "setting": "[23]", "result": 61.9, "unit": "%"}, {"measurement": "Activity", "setting": "[24]", "result": "Toxic"}, {"measurement": "MRT", "setting": "[25]", "result": 74.9, "unit": "min"}, {"measurement": "Activity", "setting": "[26]", "result": 49.09, "unit": "%"}, {"measurement": "Ratio IC50", "setting": "[27]", "result": 2}, {"measurement": "Activity", "setting": "[28]", "result": "Non-Toxic"}, {"measurement": "inhibition", "setting": "[29]", "result": 43, "unit": "%"}, {"measurement": "TGI", "setting": "[30]", "result": "Active"}, {"measurement": "TGI", "setting": "[31]", "result": "Active"}, {"measurement": "Activity", "setting": "[32]", "result": 25.58, "unit": "%"}, {"measurement": "Activity", "setting": "[33]", "result": 33.9, "unit": "%"}, {"measurement": "Activity", "setting": "[34]", "result": 11.51, "unit": "%"}]}
